According to patent US20200138764A1, “METHODS AND DEVICES FOR ACTIVATING ADIPOSE TISSUE” (The Procter & Gamble Company, priority 2018, published 2020):

Experiments:
[1] = system: Human subcutaneous pre-adipocytes; assay: Lipogenesis Assay (AdipoRed staining); assay type: cell-based; conditions: AdipoRed fluorescence, NI = no inhibition at concentration less than/equal to 1 mM
Procedure: Lipogenesis is the process by which acetyl-CoA is converted to fatty acid. Through lipogenesis and subsequent triglyceride synthesis, energy can be stored in the form of adipose tissue (i.e. fats). To determine what effect, if any, activating compounds (shown in TABLE 1) had on lipogenesis, the protocol listed below was used.
To determine whether the activating compounds (shown in TABLE 1) impacted the formation of white adipocytes from pre-adipocytes, a lipogenesis assay was performed. The cells utilized in the protocol were cryo-preserved Human subcutaneous pre-adipocytes superlot (Zen-Bio, Inc., Research Triangle Park, N.C., Cat # SP-F-SL). The growth media used was PM-1 (Zen-Bio, Inc., Research Triangle Park, N.C., cat # PM-1) plus 5 ng/mL Epidermal Growth Factor (EGF). The PM-1+5 ng/mL EGF was prepared by adding 12.5 uL of 200 ug/mL EGF stock to 500 mL PM-1. The differentiation media used was DM-2 (Zen-Bio, Inc., Research Triangle Park, N.C., cat # DM-2). The adipocyte maintenance media used was AM-1 (Zen-Bio, Inc., Research Triangle Park, N.C., cat # AM-1).
First, the human subcutaneous pre-adipocyte cells were thawed in a 37° C. water bath. Next, the thawed pre-adipocyte cells were added to 9 mL of growth medium (PM-1) at 20° C. in a 15 mL polypropylene tube (Bioexpress, Corning, Corning, N.Y.). The tube was centrifuged at 280×g (˜1100 rpm) at 20° C. for 5 min. After 5 min, the supernatant was removed and the accumulated solids were re-suspended in 2 mL of PM-1 using trituration. The suspension of cells was counted under 100× magnification using a Cyto C-Chip hemacytometer (Incyto, Seoul, South Korea, cat # DHC-N01-5). In order to proceed, 15-50 cells per 1×1 mm square in hemacytometer was needed. If, the number of cells per square was not met, 6.7×10^5 (670,000) cells per T75 flask (Bioexpress, Corning, Corning, N.Y.) were added to each square and the suspension was diluted to 20 mL with PM-1. Every other day, new media was added to replace media removed due to metabolism by the cells. The cells were re-counted as described previously. Cells were grown to 80-90% confluence, which took approximately 4-5 days. 80-90% confluence is determined by visual inspection of the area of the flask occupied by the cells. When 80-90% of the flask area has been occupied, cells are at 80-90% confluence. Cell colonies were then split 1:6 by harvesting from a single flask and equally dividing the harvested cells into six flasks. Colonies were not allowed to exceed 3 passages and were not grown to complete confluence. The pre-adipocytes were grown until they contact with other cells in the flask to aid differentiation into white or brown adipocytes.
After the pre-adipocytes were sufficiently grown to 90% confluence, the cells were ready for differentiation and treatment with an activating compound. Cells were washed with 3 mL of PBS and detached using 3 mL of Trypsin EDTA. The cells were incubated at 37° C. for 5 minutes. Next, the cells were centrifuged at 280×g at 20° C. for 5 minutes. The supernatant was discarded and the resulting pellet was re-suspended in 10 mL of PM-1 using trituration. Cells were counted at 100× magnification and the cells were diluted to 86,667 cells/mL (˜13,000 cells/150 μL) by adding the necessary amount of PM-1 to achieve the desired concentration. Upon addition of PM-1, samples were swirled by hand to evenly disperse the cells prior to plating.
Once confluence is reached, 150 μL of differentiation media (DM-2) was added (DAY 0). Samples were incubated at 37° C. for 6 days. On DAY 6, 90 μL of media was removed from each sample via aspiration, without touching the bottom of the well. Next, 140 μL of adipocyte maintenance medium (AM-1) was added. The AM-1 ran down the side of well. On DAY 6, activating compounds were added (2 μL of 10 mM activating compound) to give a final concentration of 100 μM of activating compounds. […]

human TRPM8 = assay: TRPM8 Protocol-FLIPR Assay (intracellular Ca2+); assay type: cell-based; conditions: HEK-293 cells stably transfected with human TRPM8, Fluo-4 AM, relative to benchmark agonist WS-5
Procedure: To determine whether TRPM8 is activated, the intracellular calcium ion (Ca^2+) level was measured from transfected cells with the TRPM8 receptor sequence (SEQ ID NO: 1). HEK-293 (human embryonic kidney) cells stably transfected with human TRPM8 were grown in 15 mL growth medium (high glucose DMEM (Dulbecco's Modification of Eagle's Medium) supplemented with 10% FBS (fetal bovine serum), 100 μg/mL penicillin/streptomycin, 5 μg/mL blasticindin, and 100 μg/mL zeocin) in a 75 cm^2 flask for 3 days at 37° C. in a mammalian cell culture incubator (Forma Scientific Model 3110, Marietta, Ohio) set at 5% CO2. Cells were detached with addition of 2 mL of trypsin-EDTA buffer (GIBCO® 25200, Invitrogen, Grand Island, N.Y.) for about 2-3 min. Trypsin was inactivated by addition of 8 mL growth medium. Cells were transferred to a 50 mL tube and centrifuged at 850 rpm for 3 minutes to remove medium. After centrifugation, a pellet of cells was formed in the bottom of the tube separating them from the supernatant solution. The supernatant was discarded and the cell pellet was suspended in 1 mL of fresh growth medium to which 5 μL (12.5 μg) of Fluo-4 AM (Molecular Probes, Inc., Eugene, Oreg.) calcium indicator was added and incubated for 30 min with gentle shaking. Fluo-4 AM is a fluorescent dye used for quantifying cellular Ca^2+ concentrations in the 100 nM to 1 μM range. At the end of 30 minutes, 45 mL of assay buffer (1×HBSS (Hank's Balanced Salt Solution), 20 mM HEPES (4-(2-Hydroxyethyl)-1-piperazineethanesulfonic acid)) was added to wash cells and the resulting mixture was then centrifuged at 850 rpm for 3 minutes at 20° C. to remove excess buffer and Fluo-4 AM calcium indicator.
The pelleted cells were re-suspended in 10 mL assay buffer and 90 μL aliquots (˜50,000 cells) per well delivered to a 96-well assay plate containing 10 μL of test compounds (1 mM in assay buffer, final concentration 100 μM) or buffer control and incubated at room temperature for 30 minutes. After 30 minutes, a plate (Falcon 353219, Corning Corning N.Y.) was placed into a fluorometric imaging plate reader (FLIPR384 from Molecular Devices, Sunnyvale, Calif.) and basal fluorescence recorded (excitation wave length 488 nm and emission wave length 510 nm). Then 20 μL of 100 mM of TRPM8 agonist WS5 coolant in the assay buffer was added and fluorescence recorded. For determining the direct effect of test compounds on TRPM8, fluorescence was measured immediately after addition of each compound (TABLE 1). Additional discussion of the FLIPR method can be found in Smart et al., Characterization using FLIPR of human vanilloid VR1 receptor pharmacology, European Journal of Pharmacology 417, 51-58 (2001) and Liu et al., Development and validation of a platelet calcium flux assay using a fluorescent imaging plate reader, Analytical Biochemistry 357, 216-224 (2006).
The magnitude of the fluorescence of the active-treated cells was compared to the magnitude of the fluorescence from a benchmark agonist (WS-5), as described above. The percentage of fluorescence as a function of active dose was plotted and a sigmoidal curve was generated. Curve fitting from this dose-response curve yielded the value for TRPM8 IC50 in nM.
TRPM8 activation was determined by measuring intracellular calcium ion (Ca^2+) level from transfected cells with the TRPM8 receptor gene, as described in EXAMPLE 1, the results of which are shown in TABLE 1. IC50 values are provided in column 3 of TABLE 1, which measured the concentration of activating compound needed to reduce intracellular [Ca^2+] by 50%. […]

adipocytes = assay: Real Time PCR analysis of adipocytes, in vitro; assay type: cell-based, human
Procedure: For Real Time PCR analysis of adipocytes, cells from cultures grown in 24 well plates were collected. RNA was isolated using RNeasy Kit (Cat 74104, Qiagen, Germantown, Md.) using manufacturer's protocol. RNA was quantitated using the Nanodrop 1000 (Thermofisher, Waltham, Mass.). cDNA formation was carried out using PowerUp SYBR™ Green Master Mix and real time PCR carried out on QuantStudio 6 machine (ThermoFisher, Waltham, Mass.) per manufacturer protocol. ΔΔCT analysis was done using the Expression Suite software (ThermoFisher) purchased with the instrument.
TABLE 2 used Real Time PCR to determine which proteins were expressed in adipocytes upon treatment with activating compounds. […] Real Time PCR values were relative to a control sample that was not treated with any activating compounds. […] In WS-5 and Menthol, no Real Time PCR value was over 2.0, which indicated only slight changes in mRNA expression.

[2] = Real Time PCR, relative to untreated control = 1

Question: For `CC(C)[C@@H]1CC[C@@H](C)C[C@H]1C(=O)NCC(NC(=O)[C@@H](C)N)c1ccccc1` (stereo partly drawn) [Comparative Example 1], which IC50 ([1]; Homo sapiens) is on record?
Answer: Its IC50 is 800 µM.

Question: What does the source list for `CC(C)[C@@H]1CC[C@@H](C)C[C@H]1C(=O)NCC(NC(=O)[C@H](C)N)c1ccccc1` (stereo partly drawn) [Comparative Example 2]?
Answer: IC50 (human TRPM8): 0.01 to 0.012 µM; IC50 [1]: 900 µM; IC50 ([1]; Homo sapiens): 800 µM

Question: What does the source list for `CC(C)[C@@H]1CC[C@@H](C)C[C@H]1C(=O)NC[C@@H](NC(=O)[C@@H](C)N)c1ccccc1` [Formula IV]?
Answer: IC50 ([1]; Homo sapiens): 800 µM; Relative Expression of mRNA in Adipocytes: 18S (adipocytes; [2]): 0.95; Relative Expression of mRNA in Adipocytes: ACADM (adipocytes; [2]): 1.4; Relative Expression of mRNA in Adipocytes: CPT1A (adipocytes; [2]): 1.7; Relative Expression of mRNA in Adipocytes: FASN (adipocytes; [2]): 1.35; Relative Expression of mRNA in Adipocytes: GAPDH (adipocytes; [2]): 1; Relative Expression of mRNA in Adipocytes: PPARGC1A (adipocytes; [2]): 1.1; Relative Expression of mRNA in Adipocytes: PRDM16 (adipocytes; [2]): 0.7; Relative Expression of mRNA in Adipocytes: UCP-1 (adipocytes; [2]): 1.8; Real Time PCR value (any of the proteins of TABLE 2) (adipocytes; upper bound over all proteins, relative to untreated control): ≤ 2

Question: Which results are given for `CC(C)[C@@H]1CC[C@@H](C)C[C@H]1C(=O)OC[C@@H](NC(=O)[C@@H](C)N)c1ccccc1` [Formula VI]?
Answer: IC50 (human TRPM8): 0.008 µM; IC50 ([1]; Homo sapiens): 40 µM

Question: Which IC50 (human TRPM8) does the source give for `CC(C)[C@@H]1CC[C@@H](C)C[C@H]1C(=O)OC[C@@H](NC(=O)[C@H](C)N)c1ccccc1` [Formula V] here?
Answer: The IC50 was 0.34 µM.

Question: And the IC50 ([1]; Homo sapiens)?
Answer: The IC50 was 80 µM.
